Patent US20250320497A1, “COMPOSITIONS AND METHODS FOR TREATING HEPATITIS B VIRUS (HBV) INFECTION AND HBV-ASSOCIATED DISEASES” (priority 2022, published 2025)

Tests used:
HBsAg = HBsAg (Hepatitis B virus genotype D subtype ayw, UniProt P03138); test: Activity measured diagnostically with an immunoassay; type: binding
Excerpt: (§1) In certain embodiments, the anti-HBV antibody is HBC34 or an engineered variant thereof. HBC34 are human antibodies against HBsAg with high neutralizing activity. […] The activity of HBC34, as measured diagnostically with an immunoassay, is 5000 IU/mg. As a comparison, the activity of HBIG is ˜1 IU/mg.

antigenic loop of HBsAg = test: Binding of HBC34 to HBsAg antigenic loop, genotypes and mutants; design: species or system HBV
Excerpt: as §1

HBV = test: Preclinical pharmacology of SIRNA01 against HBV
Excerpt: In some embodiments, the siRNA that targets HBV mRNA is SIRNA01. SIRNA01 is a synthetic, chemically modified siRNA targeting HBV RNA with a covalently attached triantennary N-acetyl-galactosamine (GalNAc) ligand that allows for specific uptake by hepatocytes. […] An SIRNA can have multiple antiviral effects, including degradation of the pgRNA, thus inhibiting viral replication, and degradation of all viral mRNA transcripts, thereby preventing expression of viral proteins. This may result in the return of a functional immune response directed against HBV, either alone or in combination with other therapies. The ability of SIRNA01 to reduce HBsAg-containing noninfectious subviral particles also distinguishes it from currently available treatments.
SIRNA01 targets and inhibits expression of an mRNA encoded by an HBV genome according to NCBI Reference Sequence NC_003977.2 (GenBank Accession No. GI:21326584) (SEQ ID NO:1). More specifically, SIRNA01 targets an mRNA encoded by a portion of the HBV genome comprising the sequence […] (SEQ ID NO:2), which corresponds to nucleotides 1579-1597 of SEQ ID NO:1. Because transcription of the HBV genome results in polycistronic, overlapping RNAs, SIRNA01 results in significant inhibition of expression of most or all HBV transcripts.

chronic HBV infection [1] = settings: patients with chronic HBV infection; cited from earlier work
chronic HBV infection [2] = settings: after 48 weeks of therapy; cited from earlier work
chronic HBV infection [3] = settings: PEG-IFNα add-on therapy; cited from earlier work
chronic HBV infection [4] = settings: cited from earlier work

## HBC34: human antibody against HBsAg with high neutralizing activity; HC SEQ ID NO:56, LC SEQ ID NO:58
HBsAg
  activity, as measured diagnostically with an immunoassay: 5000 IU/mg
Antigenic loop of HBsAg
  HBV genotypes and mutants recognized: all 10 HBV genotypes and 18 mutants
  affinity of binding to the antigenic loop of HBsAg: pM range

## SIRNA01: synthetic, chemically modified GalNAc-conjugated siRNA targeting HBV RNA; sense strand SEQ ID NO:5, antisense strand SEQ ID NO:6 (sense GUGUGCACUUCGCUUCACA; antisense UGUGAAGCGAAGUGCACACUU; GalNAc-conjugated, chemically modified, pattern not given here)
HBV
  pharmacological activity against HBV genotypes: pharmacologically active against HBV genotypes A through J
HBV; preclinical models
  effect in preclinical models: inhibit viral replication, translation, and secretion of HBsAg
Chronic HBV infection [1]
  reduction in HBsAg when administered individually: substantial reductions in HBsAg

## peginterferon-alfa-2a [PEG-IFNα]
Chronic HBV infection [2]
  percentage of patients with long-term viral control: < 10%
Chronic HBV infection [3]
  mean HBsAg reduction at Week 24: 0.57 log10 IU/mL
Chronic HBV infection [4]; PEG-IFNα 180 g administered weekly for 48-52 weeks, approximately
  HBsAg loss, patients overall: ≤ 10%
Chronic HBV infection [4]; baseline HBsAg less than approximately 1,000-1,500 IU/mL, with or without an NRTI
  rate of HBsAg loss, subset with low baseline HBsAg: 20-40%
